For 21 compounds, IC50 and solubility results are on record in ChEMBL document CHEMBL5131520, “Synthesis and Antitumor Activity of Diosgenin Hydroxamic Acid and Quaternary Phosphonium Salt Derivatives” (ACS Med Chem Lett, 2022).

Data set [1] deals with NCI-H358. Kind of data set: Antiproliferative activity against human NCI-H358 cells assessed as inhibition of cell growth incubated for 48 hrs by CCK8 assay. Type of data set: functional, cell-based. Particulars: NCI-H358, 48 h. On the technique in general: Tetrazolium dyes change colour on reduction, which living cells bring about.
Data set [2] in a line: Water solubility of compound. Type of data set: physicochemical. Particulars: buffer.
Data set [3] deals with HCT-116. Kind of data set: Antiproliferative activity against human HCT-116 cells assessed as inhibition of cell growth incubated for 48 hrs by CCK8 assay. Type of data set: functional, cell-based. Particulars: HCT-116, 48 h.
Data set [4] has as its system ASPC1. Nature of the data set: Antiproliferative activity against human ASPC1 cells assessed as inhibition of cell growth incubated for 48 hrs by CCK8 assay. Particulars: ASPC1, 48 h. It counts as functional, cell-based.
Data set [5] has as its system SW-620. Kind of data set: Antiproliferative activity against human SW-620 cells assessed as inhibition of cell growth incubated for 48 hrs by CCK8 assay. It counts as functional, cell-based. To be noted: SW-620, 48 h.

Each structure is given as a SMILES string. Counter-ions that a name gives are not always drawn. Bounds are passed on as bounds.

`C[C@@H]1CC[C@@]2(OC1)O[C@H]1C[C@H]3[C@@H]4CC=C5C[C@@H](OC(=O)CCCC(=O)NO)CC[C@]5(C)[C@H]4CC[C@]3(C)[C@H]1[C@@H]2C`: the IC50 (in general, the midpoint of a concentration-inhibition curve) in data set [1] amounted to 4.32 µM; in data set [3], 32.5 µM; in data set [4] it was 2.14 µM; in data set [5], 2.43 µM. Besides, the solubility result in data set [2] is “Soluble”.

For `Cc1cc(C(=O)NO)cc(C(=O)O[C@H]2CC[C@@]3(C)C(=CC[C@H]4[C@@H]5C[C@@H]6O[C@]7(CC[C@@H](C)CO7)[C@@H](C)[C@@H]6[C@@]5(C)CC[C@@H]43)C2)c1`, the IC50 in data set [1] is 15.2 µM; in data set [3], 32.8 µM; in data set [4] it was 7.8 µM; in data set [5] it was 10.7 µM. Further, the solubility result in data set [2] is on record as “Soluble”.

For the compound `C[C@@H]1CC[C@@]2(OC1)O[C@H]1C[C@H]3[C@@H]4CC=C5C[C@@H](OC(=O)CCCC[P+](c6ccccc6)(c6ccccc6)c6ccccn6)CC[C@]5(C)[C@H]4CC[C@]3(C)[C@H]1[C@@H]2C.[Br-]`, the IC50 in data set [1] is 3.54 µM; in data set [3], 4.25 µM; in data set [4] it was 0.648 µM; in data set [5], 0.778 µM. Also, the solubility entry in data set [2] is listed as “Soluble”.

In the case of `CCCC[P+](CCCC)(CCCC)CCCCC(=O)O[C@H]1CC[C@@]2(C)C(=CC[C@H]3[C@@H]4C[C@@H]5O[C@]6(CC[C@@H](C)CO6)[C@@H](C)[C@@H]5[C@@]4(C)CC[C@@H]32)C1.[Br-]`, the concentration for half-maximal inhibition (IC50) in data set [1] is 2.18 µM; in data set [3], 3.99 µM; in data set [4], 1.09 µM; in data set [5] it was 1.17 µM. In data set [2], the solubility entry is on record as “Soluble”.

Turning to `CC[P+](CC)(CC)CCCCC(=O)O[C@H]1CC[C@@]2(C)C(=CC[C@H]3[C@@H]4C[C@@H]5O[C@]6(CC[C@@H](C)CO6)[C@@H](C)[C@@H]5[C@@]4(C)CC[C@@H]32)C1.[Br-]`, the IC50 in data set [1] came to 3.51 µM; in data set [3], 5 µM; in data set [4], 2.62 µM; in data set [5] it was 4.39 µM. Further, the solubility entry in data set [2] is reported as “Soluble”.

For `C[C@@H]1CC[C@@]2(OC1)O[C@H]1C[C@H]3[C@@H]4CC=C5C[C@@H](OC(=O)CCCCCCC(=O)NO)CC[C@]5(C)[C@H]4CC[C@]3(C)[C@H]1[C@@H]2C`, the IC50 in data set [1] was 23.1 µM; in data set [3] it was over 40 µM; in data set [4], 22.9 µM; in data set [5], 11.1 µM. For the same compound, the solubility entry in data set [2] is “Soluble”.

For the compound `C[C@@H]1CC[C@@]2(OC1)O[C@H]1C[C@H]3[C@@H]4CC=C5C[C@@H](O)CC[C@]5(C)[C@H]4CC[C@]3(C)[C@H]1[C@@H]2C` [DISOGENIN], the half-inhibitory concentration (IC50) in data set [1] is over 40 µM; in data set [3], 31.4 µM; in data set [4], 63.1 µM; in data set [5] it was over 40 µM.

As to `C[C@@H]1CC[C@@]2(OC1)O[C@H]1C[C@H]3[C@@H]4CC=C5C[C@@H](OC(=O)CCCCC(=O)NO)CC[C@]5(C)[C@H]4CC[C@]3(C)[C@H]1[C@@H]2C`, the 50% inhibitory concentration (IC50) in data set [1] worked out at 12.6 µM; in data set [3] it was 38.8 µM; in data set [4], 2.31 µM; in data set [5], 1.92 µM. Also, the solubility entry in data set [2] is recorded as “Soluble”.

`C[C@@H]1CC[C@@]2(OC1)O[C@H]1C[C@H]3[C@@H]4CC=C5C[C@@H](OC(=O)c6cccc(C(=O)NO)c6)CC[C@]5(C)[C@H]4CC[C@]3(C)[C@H]1[C@@H]2C`: the 50% inhibitory concentration (IC50) in data set [1] is 9.54 µM; in data set [3] it was 34.4 µM; in data set [4], 4.96 µM; in data set [5], 6.8 µM. In addition, in data set [2], the solubility entry is recorded as “Soluble”.

With `CCCCCCCC[P+](CCCCCCCC)(CCCCCCCC)CCCCC(=O)O[C@H]1CC[C@@]2(C)C(=CC[C@H]3[C@@H]4C[C@@H]5O[C@]6(CC[C@@H](C)CO6)[C@@H](C)[C@@H]5[C@@]4(C)CC[C@@H]32)C1.[Br-]`, the IC50 in data set [1] amounted to 27.1 µM; in data set [3], 31.4 µM; in data set [4] it was 7.63 µM; in data set [5], 29 µM. The solubility result in data set [2] is reported as “Soluble”.

As to `C[C@@H]1CC[C@@]2(OC1)O[C@H]1C[C@H]3[C@@H]4CC=C5C[C@@H](OC(=O)CCC(=O)NO)CC[C@]5(C)[C@H]4CC[C@]3(C)[C@H]1[C@@H]2C`, the IC50 in data set [1] is 7.47 µM; in data set [3] it was 31.8 µM; in data set [4], 7.99 µM; in data set [5], 5.22 µM. In addition, the solubility entry in data set [2] is “Soluble”.

As to `C[C@@H]1CC[C@@]2(OC1)O[C@H]1C[C@H]3[C@@H]4CC=C5C[C@@H](OC(=O)CCCC[P+](c6ccc(Cl)cc6)(c6ccc(Cl)cc6)c6ccc(Cl)cc6)CC[C@]5(C)[C@H]4CC[C@]3(C)[C@H]1[C@@H]2C.[Br-]`, the IC50 turned out to be 1.71 µM in data set [1], 4.32 µM in data set [3], 0.652 µM in data set [4] and 6.8 µM in data set [5]. Also, the solubility entry in data set [2] is recorded as “Soluble”.

`C[C@@H]1CC[C@@]2(OC1)O[C@H]1C[C@H]3[C@@H]4CC=C5C[C@@H](OC(=O)CCCC[P+](C)(C)C)CC[C@]5(C)[C@H]4CC[C@]3(C)[C@H]1[C@@H]2C.[Br-]`: the IC50 amounted to 13.6 µM in data set [1], 10.1 µM in data set [3], 7.44 µM in data set [4] and 9.59 µM in data set [5]. Also, in data set [2], the solubility result is on record as “Soluble”.

Take `C[C@@H]1CC[C@@]2(OC1)O[C@H]1C[C@H]3[C@@H]4CC=C5C[C@@H](OC(=O)CCCC[P+](c6ccccc6)(c6ccccc6)c6cccc(-c7ccccc7)c6)CC[C@]5(C)[C@H]4CC[C@]3(C)[C@H]1[C@@H]2C.[Br-]`: the IC50 came to 3.66 µM in data set [1], 4.22 µM in data set [3], 0.29 µM in data set [4] and 1.16 µM in data set [5]. In data set [2], the solubility result was “Soluble”.

In the case of `C[C@@H]1CC[C@@]2(OC1)O[C@H]1C[C@H]3[C@@H]4CC=C5C[C@@H](OC(=O)CCCC[P+](c6ccc(F)cc6)(c6ccc(F)cc6)c6ccc(F)cc6)CC[C@]5(C)[C@H]4CC[C@]3(C)[C@H]1[C@@H]2C.[Br-]`, the IC50 in data set [1] turned out to be 3.82 µM; in data set [3] it was 4.16 µM; in data set [4], 0.728 µM; in data set [5] it was 1.42 µM. Moreover, the solubility result in data set [2] is “Soluble”.

Take `C[C@@H]1CC[C@@]2(OC1)O[C@H]1C[C@H]3[C@@H]4CC=C5C[C@@H](OC(=O)CCCC[P+](C6CCCCC6)(C6CCCCC6)C6CCCCC6)CC[C@]5(C)[C@H]4CC[C@]3(C)[C@H]1[C@@H]2C.[Br-]`: the IC50 was found to be 4.04 µM in data set [1], 4 µM in data set [3], 0.185 µM in data set [4] and 0.448 µM in data set [5]. Further, the solubility entry in data set [2] was “Soluble”.

For the compound `C[C@@H]1CC[C@@]2(OC1)O[C@H]1C[C@H]3[C@@H]4CC=C5C[C@@H](OC(=O)c6nccnc6C(=O)NO)CC[C@]5(C)[C@H]4CC[C@]3(C)[C@H]1[C@@H]2C`, the IC50 in data set [1] was 35.5 µM; in data set [3], 35.8 µM; in data set [4] it was 9.29 µM; in data set [5] it was over 40 µM. Besides, the solubility result in data set [2] is “Soluble”.

Turning to `C[C@@H]1CC[C@@]2(OC1)O[C@H]1C[C@H]3[C@@H]4CC=C5C[C@@H](OC(=O)/C=C/C(=O)NO)CC[C@]5(C)[C@H]4CC[C@]3(C)[C@H]1[C@@H]2C`, the IC50 in data set [1] is 36.8 µM; in data set [3], 39 µM; in data set [4], 11.4 µM; in data set [5], 16.9 µM. In data set [2], the solubility entry is reported as “Soluble”.

For `C[C@@H]1CC[C@@]2(OC1)O[C@H]1C[C@H]3[C@@H]4CC=C5C[C@@H](OC(=O)CCCCCCCCC(=O)NO)CC[C@]5(C)[C@H]4CC[C@]3(C)[C@H]1[C@@H]2C`, the half-inhibitory concentration (IC50) in data set [1] came out at 10.4 µM; in data set [3], 33.4 µM; in data set [4] it was 15 µM; in data set [5], 23.4 µM. Further, the solubility entry in data set [2] is on record as “Soluble”.

Turning to `C[C@@H]1CC[C@@]2(OC1)O[C@H]1C[C@H]3[C@@H]4CC=C5C[C@@H](OC(=O)CCCC[P+](c6ccccc6)(c6ccccc6)C6CCCCC6)CC[C@]5(C)[C@H]4CC[C@]3(C)[C@H]1[C@@H]2C.[Br-]`, the IC50 came to 3.52 µM in data set [1], 4.15 µM in data set [3], 0.313 µM in data set [4] and 0.873 µM in data set [5]. The solubility entry in data set [2] is recorded as “Soluble”.

As for `COc1cccc2c1C(=O)c1c(O)c3c(c(O)c1C2=O)C[C@@](O)(C(=O)CO)C[C@@H]3O[C@H]1C[C@H](N)[C@H](O)[C@H](C)O1` [DOXORUBICIN HYDROCHLORIDE], the IC50 in data set [1] is under 5 µM; in data set [3], over 1.25 µM; in data set [4] it was under 5 µM; in data set [5] it was under 5 µM.
